By logP is commonly meant the decadic logarithm of the partition coefficient of the neutral form, usually between octanol and water. Higher therefore signals higher lipophilicity. As usually defined, the logD is lipophilicity at a set pH, counting ionised and neutral species.

Our source for the logP and logD values is the SangsterLogP compilation.

Non-standard residues stand in square brackets, D forms with d. Residues, ends and D or L forms follow the SMILES beside them. Sar = CNCC(=O)O

A short description of data set [1]: method code SF, from PMID: 718082.
Data set [2] can be described thus: method code SF-AS, from PMID: 1586384.
Data set [3] can be described thus: method code SF-AS, from PMID: 7170648. The settings on record: pH 7.4.
Assay in data set [4]: not given
This is another data set of the same source.

A short description of data set [5]: method code SF-HPLC, from DOI: 10.1002/jps.2600800905, PMID: 1800703. As to conditions: pH 7.0.
The nature of data set [6]: method code SF, from DOI: 10.1021/jm980124a, PMID: 9685245. The settings on record: pH 13.0.
Data set [7] is described as follows: method code SF-HPLC, from DOI: 10.1002/jps.2600840603, PMID: 7562403. As to conditions: pH 7.4.
Data set [8] can be described thus: method code SF, from DOI: 10.1016/j.bmc.2011.10.022, PMID: 22100260. As to conditions: pH 7.4.
The nature of data set [9]: method code SF-HPLC, from DOI: 10.1016/s0223-5234(98)80037-8. The settings on record: pH 7.4.
Assay in data set [10]: not given
This is another data set of the same source.

Assay in data set [11]: not given
This is another data set of the same source.

The nature of data set [12]: method code SF-RC, from DOI: 10.2174/1874471011003010009, PMID: 20657759. The settings on record: pH 7.4.
Assay in data set [13]: not given
The source holds these as a separate data set.

Assay in data set [14]: not given
This is another data set of the same source.

A short description of data set [15]: method code SF-AS, from PMID: 7460030. The settings on record: pH 7.3.
A short description of data set [16]: method code SF-AS, from DOI: 10.1016/0014-2999(72)90235-x, PMID: 4113999.
Data set [17] in a line: method code SF, from DOI: 10.1021/jm000996o, PMID: 11087582. The settings on record: pH 7.2.
Data set [18] is described as follows: from Medić-Šarić, M; Mornar, A.; Badovinac-Črnjević, T; Jasprica, I. (2004). Experimental and calculation procedures for molecular lipophilicity: A comparative study for …. The settings on record: pH 7.4.
Data set [19] can be described thus: method code SF-AS, from DOI: 10.1016/s0022-3565(25)38749-5, PMID: 8182532. As to conditions: pH 7.4.
Assay in data set [20]: not given
This is another data set of the same source.

The nature of data set [21]: method code SF-HPLC, from DOI: 10.1248/cpb.39.1032.
Data set [22] can be described thus: method code SF-HPLC, from DOI: 10.1211/0022357001774101, PMID: 10813545.
For data set [23] the following is noted: pH 7.4.
Assay in data set [24]: not given
This is another data set of the same source.

Data set [25] in a line: method code SF-RC, from DOI: 10.1016/j.nucmedbio.2007.12.005, PMID: 18355688. As to conditions: pH 7.4.
Data set [26] can be described thus: method code SF-RC, from DOI: 10.1021/acs.jmedchem.6b01291.s001, PMID: 27696839. As to conditions: pH 7.4.
Data set [27] in a line: method code SF-HPLC, from DOI: 10.1002/jps.2600830407, PMID: 8046599. As to conditions: pH 7.0.
Data set [28] can be described thus: method code SF, from DOI: 10.4103/0250-474x.119813, PMID: 24302794. As to conditions: pH 7.4.
Data set [29] in a line: method code SF, from DOI: 10.1021/jm9910932, PMID: 10633041. As to conditions: pH 7.4.
Assay in data set [30]: not given
The source holds these as a separate data set.

Data set [31] is described as follows: method code SF-RC, from PMID: 26778147.
Assay in data set [32]: not given
The source holds these as a separate data set.

A short description of data set [33]: method code SF-HPLC, from DOI: 10.1211/146080899128734820. The settings on record: pH 2.0.
Assay in data set [34]: not given
The source holds these as a separate data set.

Data set [35] can be described thus: method code SF-RC, from DOI: 10.1016/s0969-8051(00)00170-0, PMID: 11323238. As to conditions: pH 7.4.
Assay in data set [36]: not given
This is another data set of the same source.

Data set [37] can be described thus: method code SF-RC, from DOI: 10.1016/j.nucmedbio.2014.05.001, PMID: 24969632. The settings on record: pH 7.4.

`CC(=O)O[C@]1(C(C)=O)CC[C@H]2[C@@H]3CCC4=CC(=O)CC[C@]4(C)[C@H]3CC[C@@]21C` displayed a logP of 3.79. As to `CC(=O)Nc1c(I)c(COC2C(O)C(O)OC(CO)C2O)c(I)c(COC2C(O)C(O)OC(CO)C2O)c1I` (stereo not drawn), the logP in [1] is -1.92. Turning to `CCOC(=O)OC(C)OC(=O)c1cn2c3c(c(N4CCN(C)CC4)c(F)cc3c1=O)OCC2C` (stereo not drawn), the log partition coefficient (logP) in data set [2] stood at 0.44. Turning to `CCN(Cc1cc(Nc2ccnc3cc(Cl)ccc23)ccc1O)C(=O)N1CCN(C)CC1`, the logD in [3] was 3.43. Take `CC(=O)OCC(=O)[C@@]1(O)[C@H](C)C[C@H]2[C@@H]3CCC4=CC(=O)C=C[C@]4(C)[C@@]3(F)[C@@H](O)C[C@@]21C`: the logP in [4] is 2.59. `CC[C@H](C)C(=O)O[C@H]1C[C@H](O)C=C2C=C[C@H](C)[C@H](CC[C@@H]3C[C@@H](O)CC(=O)O3)[C@H]21` had a logD in data set [5] of 2.45. In [6], `CCC(C)c1ccc(N2CCCN(c3ccc(C(C)CC)cc3)C2=N)cc1` (stereo not drawn) registered a logD of 5.28. In data set [7], `CCCC1O[C@@H]2C[C@H]3[C@@H]4CCC5=CC(=O)C=C[C@]5(C)[C@H]4[C@@H](O)C[C@]3(C)[C@]2(C(=O)CO)O1` (stereo partly drawn) displayed a logD of 3.55.

Take `CCN1CCN(S(=O)(=O)c2cnc(O)c(-c3nc4c5n(nc4c(=O)[nH]3)CCCC5CCOC)c2)CC1` (stereo not drawn): in data set [8], the pH-dependent lipophilicity (logD) was determined as 1.6. `COc1ccc2cc(C(C)C(=O)OCN3C(=O)c4ccccc4C3=O)ccc2c1` (stereo not drawn) gave a pH-dependent lipophilicity (logD) in data set [9] of 5.03. `FCCCCC1OC2(CCN(Cc3ccccc3)CC2)c2ccccc21` (stereo not drawn) displayed a logP in data set [10] of 4.06. As for `CC1C=C(C(=O)Nc2ccc(-c3ccccc3S(N)(=O)=O)cc2)N(c2ccc3ccnc(N)c3c2)N1` (stereo not drawn), the logP in data set [11] is 2.6. Turning to `COc1ccc2cccc(N3CCN(CCNC(=O)c4ccc(F)cc4)CC3)c2c1`, the log distribution coefficient (logD) in data set [12] worked out at 4.14. Turning to `CN1CN(c2ccccc2)C2(CCN(CCCC(=O)c3ccc(F)cc3)CC2)C1=O`, the log partition coefficient (logP) in data set [13] came to 3.37. In turn, `CC(C)C(Nc1ccc(C(F)(F)F)cc1Cl)C(=O)OC(C#N)c1cccc(Oc2ccccc2)c1` (racemic) came in with a logP in data set [14] of 5.5. The compound `CCCCCCCOc1cccc(NC(=O)OC2CCCCC2n2ccnc2)c1` (stereo not drawn) gave a logD in [15] of 5.64.

Take `OCCN1CCN(CC/C=C2/c3ccccc3Sc3ccc(C(F)(F)F)cc32)CC1`: the logP in [16] was determined as 3.83. Take `Cc1cn(C2CC(N=[N+]=[N-])C(COP(=O)(OCCSC(=O)C(C)(C)C)OCCSC(=O)C(C)(C)C)O2)c(=O)[nH]c1=O` (stereo not drawn): the logD in [17] is 3.73. For `COc1ccccc1C(c1cc2ccccc2oc1=O)c1cc2ccccc2oc1=O`, the logD in data set [18] was 2.5. Compound `O=S1(=O)c2cccc3cccc(c23)N1CCCN1CCN(c2ccc(F)cc2)CC1` had a logD in [19] of 3.6.

`CCC1(C)C2CN(Cc3ccccc3)CC1CN(CC1CCCCC1)C2` (stereo not drawn) showed a logP in [20] of 6.65. For `C=C[C@@]1(C)CC(=O)[C@]2(O)[C@@]3(C)[C@@H](O)CCC(C)(C)[C@@H]3[C@H](O)[C@H](OC(C)=O)[C@@]2(C)O1`, the logP in data set [21] turned out to be 3.12.

Regarding `C[C@]12CC[C@H]3[C@@H](CCC4=CC(=O)CC[C@@]43C)[C@@H]1CC[C@@H]2OC(=O)CCC(=O)O`, the logP in data set [22] is 3.55. As for `Cc1c(C(=O)Nc2ccc(F)cc2)nn(-c2ccc(Cl)cc2Cl)c1-c1ccc(Br)cc1`, in [23], the log distribution coefficient (logD) came out at 4. As for `CCN(Cc1cccnc1)C(=O)CN(c1ccc(OC)nc1)S(=O)(=O)c1ccccc1C`, in [24], the lipophilicity (logP) was 2.24. In turn, `CN(Cc1ccccc1)C(=O)Cc1c(-c2ccc(Cl)cc2)nc2c(Cl)cc(Cl)cn12` gave a logD in data set [25] of 2.67. For the compound `O=C(NO)C1CC(O)CN1C(=O)c1ccc(C#Cc2ccc(OCCCCCF)cc2)cc1` (stereo not drawn), the pH-dependent lipophilicity (logD) in data set [26] amounted to 2.5.

In data set [27], `Cc1cn(C2CC(N=[N+]=[N-])C(COC(=O)CNC(=O)C34CC5CC(CC(C5)C3)C4)O2)c(=O)[nH]c1=O` (stereo not drawn) gave a logD of 2.1. In turn, `CCc1cccc2c3c([nH]c12)C(CC)(CC(=O)N[C@@H](C=O)[C@@H](O)[C@H](O)[C@H](O)CO)OCC3` (stereo partly drawn) gave a logD in data set [28] of 1.35. The compound `CC(=O)NCC(=O)N(C)CC(=O)NC(CC(C)C)C(=O)NC(Cc1ccccc1)C(N)=O` (stereo not drawn) (Ac-G[Sar]LF-NH2; configuration not given here) had a logD in data set [29] of 1.64. The compound `COc1cc(N)c(Cl)cc1C(=O)NC1CC2CCCC(C1)N2Cc1ccc(F)cc1` (stereo not drawn) returned a lipophilicity (logP) in [30] of 2.56.

As to `O=C(Nc1ccc(F)cc1)c1ccc(N2CCN(C(=O)c3ccccc3C(F)(F)F)CC2)nn1`, the lipophilicity (logP) in data set [31] stood at 2.08. In [32], `Cc1ccc(N2C(=O)C(=O)N(C(=O)COc3ccc4c(C)cc(=O)oc4c3C)C2=O)cc1` displayed a logP of 0.84.

`CC[C@H](C)C(=O)O[C@H]1C[C@@H](C)C=C2C=C[C@H](C)[C@H](CC[C@@H]3C[C@@H](O)CC(=O)O3)[C@H]21`: the logD in data set [33] was found to be 4.04. In [34], `CCC12C=C(C(=O)OCCOC(C)=O)n3c4c(c5ccccc53)CCN(CCC1)C42` (stereo not drawn) came in with a lipophilicity (logP) of 4.5. `COc1cc2ncnc(N3CCC(n4c(=O)c5cc(C)ccc5n(C)c4=O)CC3)c2cc1OC` came in with a logD in data set [35] of 3.14. The compound `O=C(OCC1C2CC3CCC1N3CC2=Cc1ccc(I)c(Cl)c1)c1ccccc1` (stereo not drawn) came in with a lipophilicity (logP) in data set [36] of 6.41.

In [37], `O=C(OC(C(F)(F)F)C(F)(F)F)N1CCC(C(O)(c2ccc3c(c2)OCO3)c2ccc3c(c2)OCO3)CC1` showed a logD of 4.67.
